Measured values reported in patent US20060229256A1, “Enternal administration of arginine and glutamine for abnormal vascular proliferation” (Bristol-Myers Squibb Company, priority 2003, published 2006).
“And” between values parts separate entries of the source, which are not always exact repeats. Identical values can stand only once.

How the values were obtained:
[1] = system: neonatal mouse model of oxygen-induced retinopathy; experiment: Neonatal mouse model of oxygen-induced retinopathy, intra-peritoneal injection, pre-retinal nuclei count and retinal flat mounts; type: in vivo; conditions: for reduction in preretinal nuclei / preretinal vascularization: 5 g/kg/d intra-peritoneal, twice daily, P12-P17, versus vehicle
Experimental: (§1) In the neonatal mouse model of oxygen-induced retinopathy, 7-day old mice were placed with their nursing dams in a 75% oxygen atmosphere for 5 days. (Smith et al., Invest Ophthalmol Vis Sci., 35(1):101-111 (1994). Mouse pups received twice daily intra-peritoneal injections (50 μl) starting on postnatal day 12 (P12) and continuing through postnatal day 17 (P17). In one experiment, injections included vehicle (0.9% sodium chloride) and the test compounds Ala-gly (5 g/kg/d), Arg-gln dipeptide (5 g/kg/d) and in a second experiment, different doses of Arg-gln (1.0, 2.5 and 5 g/kg/d) were tested.
(§2) After the fifth day following return to normoxia (P17), the animals were euthanized by injection of a lethal dose of a combination of ketamine (70 mg/kg body weight) and xylazine (15 mg/kg body weight) followed by cervical dislocation. The eyes were removed and fixed in 4% paraformaldehyde, embedded in paraffin, and sectioned as previously described. (Smith et al., Id.) Pre-retinal nuclei were counted by masked observers. Efficacy of treatment was calculated as the percent average nuclei per section in the eyes of Arg-Gln treated animals versus control animals.
All data represent the mean±SEM. ANOVA was used to evaluate differences among groups, and individual contrasts were done using Student t-tests with Bonferroni correction was used to determine the significance between groups.

VEGF mRNA = VEGF mRNA in retina of oxygen-induced retinopathy mice (real-time RT-PCR); type: in vivo, mouse; conditions: 5 g/kg/d parenteral, day 5 after removal from high oxygen, P=0.007
Experimental: as §1
For total RNA isolations from retina the animals were sacrificed and the eyes removed. The retina were then dissected away from the eye and stored in RNAlater® buffer (Ambion, Austin, Tex.) at 4° C. for subsequent isolation of protein or RNA.
VEGF protein concentration was determined from isolated mouse retinas using the Quantikine® Human VEGF Immunoassay ELISA kit (R&D Systems, Minneapolis, Minn.). Pups were treated with the 5 g/kg/d dose of dipeptide and at varying time points after the pups were removed from oxygen on day 12. Eyes were enucleated at 0.5, 1 and 5 days post removal from high oxygen (n=14 eyes for each data point). Vehicle treated animals were compared to dipeptide-treated animals. […]

[2] = system: neonatal mouse model of oxygen-induced retinopathy; experiment: Neonatal mouse model of oxygen-induced retinopathy, gavage (enteral) administration, pre-retinal nuclei count; type: in vivo; conditions: gavage, 1, 2.5 and 5 gm/kg·day, P12-P17, versus vehicle; dose/response, highest effectiveness at 5 gm/kg·day
Description: In the neonatal mouse model of oxygen-induced retinopathy, 7-day old mice were placed with their nursing dams in a 75% oxygen atmosphere for 5 days. Mouse pups received twice a day gavage feedings of dipeptide or control solution (50 microliter) starting on postnatal day 12 (P12) and continuing through postnatal day 17 (P17). Gavage feeds included vehicle (0.9% sodium chloride) and the test compounds and different doses of Arg-Gln (1.0, 2.5 and 5 gm/kg/d). The daily dosage of the dipeptide was divided evenly between the two daily gavage feedings.
as §2, with “sectioned.” for “sectioned as previously described. (Smith et al., Id.)”

[3] = system: vascular endothelial cell growth factor (VEGF) in human retinal pigment epithelial cells (hRPE); experiment: VEGF secretion by human retinal pigment epithelial cells (VEGF ELISA of culture medium); type: cell-based
Experimental: Human eyes were obtained from the National Disease Resource Interchange within 36 h of death. hRPE cells were prepared and maintained as described by Grant et al., in Curr. Eye Res., 9(4):323-335 (1990), and Enzmann et al., in Transpl Immunol, March 7(1): 9-14 (1999). For cell culture experiments, hRPE from passages 3-5 were used. All tissue culture media was purchased from Mediatech, Inc., Herndon, Fla. hRPE cultures were placed in glutamine-free medium for 24 hrs and then were exposed either to 0, 0.5, 1, 2.5 or 5 mg/ml of Arg-gln dipeptide for 48 hrs. At the end of 48 hrs, VEGF content of the culture medium containing the hRPE cells was measured using the Quantikine® Human VEGF Immunoassay ELISA kit (R&D Systems, Minneapolis, Minn.).

| Substance | reduction in preretinal nuclei / preretinal vascularization [1] | VEGF mRNA in retina versus vehicle-treated pups (VEGF mRNA) | VEGF mRNA in retina versus vehicle-treated pups (VEGF mRNA; listed as Arg-gln dipeptide) | average nuclei per section in the eyes (FIG. 4) [2] | effect on VEGF secretion as a function of the level of Arg-gln (FIG. 1) ([3]; 0-5 mg/ml, 48 hrs) | decrease in soluble VEGF expression into the culture medium ([3]; 1.5 mM Arg-gln, 48 hrs exposure after 24 hrs in glutamine-free medium, P=0.002) | effect on preretinal nuclei, all doses ([1]; 1.0, 2.5 and 5.0 g/kg/d intra-peritoneal, five days of treatment, P<0.00001) | effect on preretinal nuclei at the lowest dose tested (FIG. 2) ([1]; 1 gm/kg·day intra-peritoneal, P12-P17) | reduction in preretinal nuclei / preretinal vascularization ([1]; listed as Arg-gln dipeptide) | retinal flat mounts (fluorescently labeled dextran): neovascular tufts and vascular leakage ([1]; Arg-gln treated pups compared to control dipeptide Ala-gly treated pups) |
| --- | --- | --- | --- | --- | --- | --- | --- | --- | --- | --- |
| Ala-gly [reference compound] | 2±5% |  |  |  |  |  |  |  |  |  |
| arginyl-glutamine dipeptide [Arg-gln] | ~80% and 82±7% | significant reduction | much lower | decreased at all levels of administration | statistically significant dose-dependent decrease | 52.3±6.2% | significant reduction | significant reduction | 80% | reduced neovascular tufts and vascular leakage |
